Tests used:
total ATXN3 protein = test: ATXN3 total protein assay (MSD, SK-N-MC cells); type: cell-based, Human; details: 48 hours incubation, read-out: ATXN3 Potency - Protein IC50
Method: Human neuroblastoma SK-N-MC cells were seeded at 10,000 cells/well in 384 well plates one day prior to compound treatment. The concentrations of compounds were tested at appropriate doses ranging from 30 μM to 0.6 nM. After incubation for 48 hours, the cells were lysed with 25 μL of lysis buffer containing protease inhibitors, and total ATXN3 protein levels were assessed by Mesoscale Discovery (MSD) assay developed with one pair of anti-ATXN3 antibodies. The capture and detect antibodies were raised in mouse and rabbit respectively. Anti-rabbit MSD-ST antibody was used for secondary antibody.
ATXN3 recombinant protein was used for standards. The readouts were captured with 35 μL of MSD read buffer and multi-array 384-well high binding plates.

[1] = test system: ATXN3 transcripts containing exon 4 (E4E5); test: ATXN3 quantitative splicing assay (qPCR, SK-N-MC cells); type: cell-based; details: Homo sapiens, 24 h treatment, qPCR E4E5 primers/probe, read-out: ATXN3 Potency - Splicing E4E5 IC50
Method: Human neuroblastoma SK-N-MC cells were plated in 384-well plates at 20,000 cells/well. Twenty-four hours after plating, cells were treated with compounds for 24 h at appropriate concentrations ranging from 30 μM to 0.6 nM (0.3% DMSO). Treated cells were lysed in 15 μL of lysis buffer, and cDNA was synthesized using the Fast Advanced Cells-to-Ct kit. Two μL of each cDNA was used in qPCR reactions to confirm the exon 4 skipped transcripts of ATXN3. A second set of primers/probe E4E5 was used to detect the transcripts containing exon 4. The third set of primers/probe E8E9 was used to detect total gene level of ATXN3. The qPCR reactions were prepared in 384-well plates in 10 μL volume, using TaqMan™ Fast Advanced Master Mix with primers and probes shown in the table below. Reactions were run in a Quant Studio 6 qPCR instrument with default settings.
The primers and probes are listed below in Table 4.

SMILES	IC50 (total ATXN3 protein) [µM]	IC50 [1] [µM]
C[C@H](N)Cc1sc2c(NCc3cccs3)cnnc2c1C1CC1 [Compound 80, 6-[(2S)-2-aminopropyl]-7-cyclopropyl-N-[(thiophen-2-yl)methyl]thieno[3,2-c]pyridazin-4-amine]	0.501 to 5	0.501 to 5
Cc1c(CC(N)CF)sc2c(NCc3cccs3)cnnc12 (stereo not drawn) [Compound 141, 6-(2-amino-3-fluoropropyl)-7-methyl-N-[(thiophen-2-yl)methyl]thieno[3,2-c]pyridazin-4-amine]	0.501 to 5	0.501 to 5
C#Cc1c(C[C@H](C)N)sc2c(NCc3cccs3)cnnc12 [Compound 116, 6-[(2S)-2-aminopropyl]-7-ethynyl-N-[(thiophen-2-yl)methyl]thieno[3,2-c]pyridazin-4-amine]	0.101 to 0.5	1e-05 to 0.1
Cc1c([C@H](C)[C@H](C)N)sc2c(NCc3cccs3)cnnc12 [Compound 26]	10 to 40	10 to 40
Cc1c(C[C@@H](N)CS(C)(=O)=O)sc2c(NCc3cccs3)cnnc12 [Compound 60, 6-[(2R)-2-amino-3-methanesulfonylpropyl]-7-methyl-N-(thiophen-2-ylmethyl)thieno[3,2-c]pyridazin-4-amine]	5 to 10	5 to 10
COc1nnc2c(C)c(C[C@H](C)N)sc2c1NCc1cccs1 [Compound 86, 6-[(2S)-2-aminopropyl]-3-methoxy-7-methyl-N-[(thiophen-2-yl)methyl]thieno[3,2-c]pyridazin-4-amine]	10 to 40	10 to 40
Cc1c(C[C@@H](N)CC#N)sc2c(NCc3cccs3)cnnc12 [Compound 27, (3S)-3-amino-4-(7-methyl-4-{[(thiophen-2-yl)methyl]amino}thieno[3,2-c]pyridazin-6-yl)butanenitrile]	5 to 10	0.501 to 5
CCc1c(C[C@H](C)N)sc2c(NCc3cccs3)cnnc12 [Compound 23, 6-[(2S)-2-aminopropyl]-7-ethyl-N-[(thiophen-2-yl)methyl]thieno[3,2-c]pyridazin-4-amine]	5 to 10	5 to 10
Cc1c(C[C@@H](N)CCO)sc2c(NCc3cccs3)cnnc12 [Compound 61, (3S)-3-amino-4-(7-methyl-4-{[(thiophen-2-yl)methyl]amino}thieno[3,2-c]pyridazin-6-yl)butan-1-ol]	0.501 to 5	0.501 to 5
Cc1c([C@@H](O)[C@H](C)N)sc2c(NCc3cccs3)cnnc12 (single isomer, unassigned) [Compound 42]	5 to 10	5 to 10
Cc1c(C[C@@H](N)CCF)sc2c(NCc3cccs3)cnnc12 [Compound 48, 6-[(2S)-2-amino-4-fluorobutyl]-7-methyl-N-(thiophen-2-ylmethyl)thieno[3,2-c]pyridazin-4-amine]	0.501 to 5	0.501 to 5
Cc1c(C[C@@H](N)CO)sc2c(NCc3ccco3)cnnc12 [Compound 1, (2R)-2-amino-3-(4-{[(furan-2-yl)methyl]amino}-7-methylthieno[3,2-c]pyridazin-6-yl)propan-1-ol]	0.501 to 5	0.501 to 5
Cc1c(C[C@H]2CCN2)sc2c(NCc3cccs3)cnnc12 [Compound 72, 6-{[(2R)-azetidin-2-yl]methyl}-7-methyl-N-[(thiophen-2-yl)methyl]thieno[3,2-c]pyridazin-4-amine]	10 to 40	10 to 40
Cc1c(C[C@@H](N)COC2CC2)sc2c(NCc3cccs3)cnnc12 [Compound 131, 6-[(2R)-2-amino-3-cyclopropoxypropyl]-7-methyl-N-[(thiophen-2-yl)methyl]thieno[3,2-c]pyridazin-4-amine]	5 to 10	0.501 to 5
C[C@H](N)Cc1sc2c(N[C@H](C)c3cccs3)cnnc2c1Br [Compound 113, 6-[(2S)-2-aminopropyl]-7-bromo-N-[(1R)-1-(thiophen-2-yl)ethyl]thieno[3,2-c]pyridazin-4-amine]	10 to 40	10 to 40
Cc1c(C[C@@H](N)COC(F)F)sc2c(NCc3cccs3)cnnc12 [Compound 133, 6-[(2R)-2-amino-3-(difluoromethoxy)propyl]-7-methyl-N-[(thiophen-2-y1)methyl]thieno[3,2-c]pyridazin-4-amine]	0.501 to 5	0.501 to 5
COc1csc(CNc2cnnc3c(C)c(C[C@H](C)N)sc23)c1 [Compound 75, 6-[(2S)-2-aminopropyl]-N-[(4-methoxythiophen-2-yl)methyl]-7-methylthieno[3,2-c]pyridazin-4-amine]	10 to 40	10 to 40

SMILES	IC50 (total ATXN3 protein) [µM]	IC50 [1] [µM]
Cc1c(C[C@@H](N)C[C@H]2CC2(F)F)sc2c(NCc3cccs3)cnnc12 [Compound 127, 6-[(2S)-2-amino-3-[(1S)-2,2-difluorocyclopropyl]propyl]-7-methyl-N-(thiophen-2-ylmethyl)thieno[3,2-c]pyridazin-4-amine]	10 to 40	10 to 40
Cc1c(C[C@H](N)C[C@@H]2CC2(F)F)sc2c(NCc3cccs3)cnnc12 [Compound 130, 6-[(2R)-2-amino-3-[(1R)-2,2-difluorocyclopropyl]propyl]-7-methyl-N-(thiophen-2-ylmethyl)thieno[3,2-c]pyridazin-4-amine]	0.501 to 5	0.501 to 5
Cc1c([C@H](O)[C@H](C)N)sc2c(NCc3cccs3)cnnc12 (single isomer, unassigned) [Compound 41]	10 to 40	10 to 40
Cc1c(C[C@@H](N)COC(F)(F)F)sc2c(NCc3cccs3)cnnc12 [Compound 132, 6-[(2R)-2-amino-3-(trifluoromethoxy)propyl]-7-methyl-N-[(thiophen-2-yl)methyl]thieno[3,2-c]pyridazin-4-amine]	10 to 40	10 to 40
N[C@@H](CO)Cc1sc2c(NCc3cccs3)cnnc2c1Cl [Compound 91, (2R)-2-amino-3-(7-chloro-4-{[(thiophen-2-yl)methyl]amino}thieno[3,2-c]pyridazin-6-yl)propan-1-ol]	0.101 to 0.5	0.101 to 0.5
Cc1nnc2c(C)csc2c1NCc1cccs1 [Compound 57, 3,7-dimethyl-N-[(thiophen-2-yl)methyl]thieno[3,2-c]pyridazin-4-amine]	10 to 40	10 to 40
Cc1c(C[C@H](C)N)sc2c(NCc3ccns3)cnnc12 [Compound 18, 6-[(2S)-2-aminopropyl]-7-methyl-N-[(1,2-thiazol-5-yl)methyl]thieno[3,2-c]pyridazin-4-amine]	10 to 40	10 to 40
Cc1c(C[C@H](C)N)sc2c(NCc3cccs3)cnnc12 [Compound 4, 6-[(2S)-2-aminopropyl]-7-methyl-N-(thiophen-2-ylmethyl)thieno[3,2-c]pyridazin-4-amine]	0.101 to 0.5	0.501 to 5
Cc1c(C[C@@H]2CCN2)sc2c(NCc3cccs3)cnnc12 [Compound 71, 6-{[(2S)-azetidin-2-y1]methyl}-7-methyl-N-[(thiophen-2-yl)methyl]thieno[3,2-c]pyridazin-4-amine]	10 to 40	10 to 40
COc1ccsc1CNc1cnnc2c(C)c(C[C@H](C)N)sc12 [Compound 74, 6-[(2S)-2-aminopropyl]-N-[(3-methoxythiophen-2-yl)methyl]-7-methylthieno[3,2-c]pyridazin-4-amine]	10 to 40	10 to 40
Cc1c(C[C@@H](N)CC2CC2)sc2c(NCc3ccco3)cnnc12 [Compound 52, 6-[(2S)-2-amino-3-cyclopropylpropyl]-N-[(furan-2-yl)methyl]-7-methylthieno[3,2-c]pyridazin-4-amine]	0.501 to 5	0.501 to 5
Cc1c([C@H](C)[C@@H](C)N)sc2c(NCc3cccs3)cnnc12 [Compound 99, 6-[(2R,3R)-3-aminobutan-2-yl]-7-methyl-N-[(thiophen-2-yl)methyl]thieno[3,2-c]pyridazin-4-amine]	10 to 40	10 to 40
N[C@@H](CO)Cc1cc2nncc(NCc3cccs3)c2s1 [Compound 53, (2R)-2-amino-3-(4-{[(thiophen-2-yl)methyl]amino}thieno[3,2-c]pyridazin-6-yl)propan-1-ol]	0.501 to 5	0.501 to 5
Cc1c(C[C@@H](C)N)sc2c(NCc3cccs3)cnnc12 [Compound 49, 6-[(2R)-2-aminopropyl]-7-methyl-N-[(thiophen-2-yl)methyl]thieno[3,2-c]pyridazin-4-amine]	10 to 40	10 to 40
Cc1csc2c(NCc3ccco3)cnnc12 [Compound 11, N-[(furan-2-yl)methyl]-7-methylthieno[3,2-c]pyridazin-4-amine]	10 to 40	10 to 40
Cc1c(C[C@H](C)N)sc2c(NCc3ccc(Br)s3)cnnc12 [Compound 62, 6-[(2S)-2-aminopropyl]-N-[(5-bromothiophen-2-yl)methyl]-7-methylthieno[3,2-c]pyridazin-4-amine]	5 to 10	5 to 10

Reference: patent US20250101034A1, “COMPOSITIONS USEFUL FOR MODULATING SPLICING” (SKYHAWK THERAPEUTICS, INC., priority 2021, published 2025)
